Patent US12084444B2, “Spiro-lactam NMDA modulators and methods of using same” (Tenacia Biotechnology (Hong Kong) Co., Limited, priority 2016, dated 2024)

Columns and labels:
[1] = molecular target: T1, NMDAR2A expressing HEK cell membranes (Homo sapiens, UniProt Q05586+Q12879); assay: NMDAR agonist assay, [3H]MK-801 binding, NMDAR2A; assay type: biochemical; parameters: key to NMDAR2A B: log EC50: 0=−; ≥1×10^−9 M (e.g., −8)=+; <1×10^−9 M (e.g., −10)=++; conditions: 0.25 h, 50 μM glutamate; read-out: NMDAR2A A: % maximal [3H]MK-801 binding relative to 1 mM glycine
T1 construct: expressed in transfected cells; host or cells: HEK cells (membrane extract)
Experimental: (§1) Assays were conducted as described by Moskal et al., “GLYX-13: a monoclonal antibody-derived peptide that acts as an N-methyl-D-aspartate receptor modulator,” Neuropharmacology, 49, 1077-87, 2005. These studies were designed to determine if the test compounds act to facilitate NMDAR activation in NMDAR2A, NMDAR2B, NMDAR2C or NMDAR2D expressing HEK cell membranes as measured by increases in [^3H]MK-801 binding.
(§2) In the assay, 300 μg of NMDAR expressing HEK cell membrane extract protein was preincubated for 15 minutes at 25° C. in the presence of saturating concentrations of glutamate (50 μM) and varying concentrations of test compound (1×10^−15 M-1×10^−7 M), or 1 mM glycine. Following the addition of 0.3 μCi of [^3H]MK-801 (22.5 Ci/mmol), reactions were again incubated for 15 minutes at 25° C. (nonequilibrium conditions). Bound and free [^3H]MK-801 were separated via rapid filtration using a Brandel apparatus.
(§3) In analyzing the data, the DPM (disintegrations per minute) of [^3H]MK-801 remaining on the filter were measured for each concentration of test compound or for 1 mM glycine. The DPM values for each concentration of a ligand (N=2) were averaged. The baseline value was determined from the best fit curve of the DPM values modeled using the GraphPad program and the log(agonist) vs. response(three parameters) algorithm was then subtracted from all points in the dataset. The % maximal [^3H]MK-801 binding was then calculated relative to that of 1 mM glycine: all baseline subtracted DPM values were divided by the average value for 1 mM glycine. The EC50 and % maximal activity were then obtained from the best fit curve of the % maximal [^3H]MK-801 binding data modelled using the GraphPad program and the log(agonist) vs. response(three parameters) algorithm.
(§4) The tables below summarize the results for the wild type NMDAR agonists NMDAR2A, NMDAR2B, NMDAR2C, and NMDAR2D, and whether the compound is not an agonist (−), is an agonist (+), or is a strong agonist (++), where column A is based on the % maximal [^3H]MK-801 binding relative to 1 mM glycine (−=0; <100%=+; and >100%=++); and column B is based on log EC50 values (0=−; ≥1×10^−9 M (e.g., −8)=+; and <1×10^−9 M (e.g., −10)=++).

[2] = molecular target: T2, NMDAR2A expressing HEK cell membranes (Homo sapiens, UniProt Q12879); assay: NMDAR agonist assay, [3H]MK-801 binding, NMDAR2A; assay type: biochemical; parameters: key to NMDAR2A B: log EC50: 0=−; ≥1×10^−9 M (e.g., −8)=+; <1×10^−9 M (e.g., −10)=++; conditions: 50 μM glutamate
T2 construct: expressed in transfected cells; host or cells: HEK cells (membrane extract)
Experimental: as §1, §2, §3, §4

IV pharmacokinetics = assay: IV pharmacokinetics; parameters: species or system Sprague Dawley rats; conditions: Sprague Dawley, in vivo, rat, 2 mg/kg, normal saline; for Vd: read-out: Vss
Experimental: Sprague Dawley rats were dosed intravenously using a normal saline formulation containing 2 mg/kg of the compounds identified in the below table. The table below summarizes the results of the IV pharmacokinetics.

[3] = molecular target: T3, NMDAR2C expressing HEK cell membranes (Homo sapiens, UniProt Q14957); assay: NMDAR agonist assay, [3H]MK-801 binding, NMDAR2C; assay type: biochemical; conditions: 50 μM glutamate
T3 construct: expressed in transfected cells; host or cells: HEK cells (membrane extract)
T3 sequence (Q14957 20-1233, other chains not shown): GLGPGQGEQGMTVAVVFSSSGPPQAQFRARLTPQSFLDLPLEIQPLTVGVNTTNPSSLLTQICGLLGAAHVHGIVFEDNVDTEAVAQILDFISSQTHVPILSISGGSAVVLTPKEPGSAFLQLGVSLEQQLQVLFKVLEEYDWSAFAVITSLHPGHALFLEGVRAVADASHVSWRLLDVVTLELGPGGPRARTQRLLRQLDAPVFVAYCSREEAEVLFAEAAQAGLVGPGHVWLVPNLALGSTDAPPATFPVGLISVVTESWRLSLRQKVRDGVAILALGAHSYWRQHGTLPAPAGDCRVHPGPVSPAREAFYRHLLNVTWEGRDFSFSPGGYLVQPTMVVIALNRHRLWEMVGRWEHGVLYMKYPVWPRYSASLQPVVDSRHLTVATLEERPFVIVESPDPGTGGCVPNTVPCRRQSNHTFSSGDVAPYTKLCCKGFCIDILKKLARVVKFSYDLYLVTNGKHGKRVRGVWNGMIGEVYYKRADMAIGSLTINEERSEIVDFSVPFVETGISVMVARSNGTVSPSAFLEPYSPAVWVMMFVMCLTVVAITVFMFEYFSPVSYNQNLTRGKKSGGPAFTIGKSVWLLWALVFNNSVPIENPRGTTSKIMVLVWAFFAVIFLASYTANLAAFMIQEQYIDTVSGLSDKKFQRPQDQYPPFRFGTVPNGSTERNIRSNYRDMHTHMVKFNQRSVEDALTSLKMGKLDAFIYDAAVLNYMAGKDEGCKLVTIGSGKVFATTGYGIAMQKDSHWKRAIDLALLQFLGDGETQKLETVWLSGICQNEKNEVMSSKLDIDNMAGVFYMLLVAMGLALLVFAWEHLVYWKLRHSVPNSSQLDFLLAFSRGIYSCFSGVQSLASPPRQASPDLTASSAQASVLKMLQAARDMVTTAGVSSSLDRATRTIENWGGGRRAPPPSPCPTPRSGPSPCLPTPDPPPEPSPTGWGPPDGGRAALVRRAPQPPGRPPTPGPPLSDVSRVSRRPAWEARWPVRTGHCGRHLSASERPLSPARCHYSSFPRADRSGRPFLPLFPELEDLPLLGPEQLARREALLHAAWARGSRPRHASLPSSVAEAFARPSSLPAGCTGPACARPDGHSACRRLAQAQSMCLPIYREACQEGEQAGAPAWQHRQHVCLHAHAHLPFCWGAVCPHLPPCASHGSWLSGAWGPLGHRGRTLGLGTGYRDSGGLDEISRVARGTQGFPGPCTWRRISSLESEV
Experimental: as §1, §2
as §3, with “algorithm. […]” for “algorithm.”

[4] = molecular target: T4, NMDAR2D expressing HEK cell membranes (Homo sapiens, UniProt O15399); assay: NMDAR agonist assay, [3H]MK-801 binding, NMDAR2D; assay type: biochemical; conditions: 50 μM glutamate
T4 construct: expressed in transfected cells; host or cells: HEK cells (membrane extract)
T4 sequence (O15399 28-1336, other chains not shown): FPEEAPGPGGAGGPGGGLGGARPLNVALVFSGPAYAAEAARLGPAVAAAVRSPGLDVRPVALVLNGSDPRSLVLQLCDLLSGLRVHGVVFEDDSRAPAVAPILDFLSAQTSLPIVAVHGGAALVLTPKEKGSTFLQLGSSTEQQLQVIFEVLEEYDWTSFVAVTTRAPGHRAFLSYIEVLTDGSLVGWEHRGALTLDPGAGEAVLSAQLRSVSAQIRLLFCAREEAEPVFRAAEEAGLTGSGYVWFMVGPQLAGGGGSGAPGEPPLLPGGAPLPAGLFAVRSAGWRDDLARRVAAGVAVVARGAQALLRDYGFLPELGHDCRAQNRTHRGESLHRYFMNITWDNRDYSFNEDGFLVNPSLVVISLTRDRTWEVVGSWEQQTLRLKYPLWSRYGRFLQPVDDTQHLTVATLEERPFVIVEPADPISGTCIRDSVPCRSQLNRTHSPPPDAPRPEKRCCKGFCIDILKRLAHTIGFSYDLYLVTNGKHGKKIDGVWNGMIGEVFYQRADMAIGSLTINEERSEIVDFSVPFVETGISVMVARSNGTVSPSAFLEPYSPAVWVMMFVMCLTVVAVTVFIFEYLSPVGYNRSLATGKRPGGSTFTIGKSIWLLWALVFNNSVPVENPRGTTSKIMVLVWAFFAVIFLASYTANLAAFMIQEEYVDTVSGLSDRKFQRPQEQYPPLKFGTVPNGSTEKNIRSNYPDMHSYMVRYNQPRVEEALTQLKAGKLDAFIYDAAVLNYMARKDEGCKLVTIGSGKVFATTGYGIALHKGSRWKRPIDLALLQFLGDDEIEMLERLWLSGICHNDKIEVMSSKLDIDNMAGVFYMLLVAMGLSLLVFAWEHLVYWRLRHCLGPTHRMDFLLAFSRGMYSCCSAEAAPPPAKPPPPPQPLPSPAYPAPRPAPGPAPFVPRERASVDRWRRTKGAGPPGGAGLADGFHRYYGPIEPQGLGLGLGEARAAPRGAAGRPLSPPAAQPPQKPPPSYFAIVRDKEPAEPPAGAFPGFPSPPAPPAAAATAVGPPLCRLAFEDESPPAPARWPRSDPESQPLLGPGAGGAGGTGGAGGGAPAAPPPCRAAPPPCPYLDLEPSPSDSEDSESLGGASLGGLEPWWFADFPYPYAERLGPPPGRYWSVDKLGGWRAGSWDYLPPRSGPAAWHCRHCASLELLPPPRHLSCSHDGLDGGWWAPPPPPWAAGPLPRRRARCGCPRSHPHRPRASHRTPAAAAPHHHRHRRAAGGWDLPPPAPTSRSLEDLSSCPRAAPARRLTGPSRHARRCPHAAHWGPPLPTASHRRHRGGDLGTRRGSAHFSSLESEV
Experimental: as §1, §2, §3, §4

[5] = molecular target: T5, NMDAR2D expressing HEK cell membranes (Homo sapiens, UniProt O15399+Q05586); assay: NMDAR agonist assay, [3H]MK-801 binding, NMDAR2D; assay type: biochemical; conditions: 50 μM glutamate; read-out: NMDAR2D B: log EC50 (converted)
T5 construct: expressed in transfected cells; host or cells: HEK cells (membrane extract)
T5 sequence (O15399 28-1336, other chains not shown): as above
Experimental: as §1, §2, §3, §4

[6] = molecular target: T6, NMDAR2B expressing HEK cell membranes (Homo sapiens, UniProt Q05586+Q13224); assay: NMDAR agonist assay, [3H]MK-801 binding, NMDAR2B; assay type: biochemical; conditions: 50 μM glutamate; for EC50: read-out: NMDAR2B B: log EC50 (converted); for Emax: 0.25 h, read-out: NMDAR2B A: % maximal [3H]MK-801 binding relative to 1 mM glycine
T6 construct: expressed in transfected cells; host or cells: HEK cells (membrane extract)
T6 sequence (Q13224 27-1484, other chains not shown): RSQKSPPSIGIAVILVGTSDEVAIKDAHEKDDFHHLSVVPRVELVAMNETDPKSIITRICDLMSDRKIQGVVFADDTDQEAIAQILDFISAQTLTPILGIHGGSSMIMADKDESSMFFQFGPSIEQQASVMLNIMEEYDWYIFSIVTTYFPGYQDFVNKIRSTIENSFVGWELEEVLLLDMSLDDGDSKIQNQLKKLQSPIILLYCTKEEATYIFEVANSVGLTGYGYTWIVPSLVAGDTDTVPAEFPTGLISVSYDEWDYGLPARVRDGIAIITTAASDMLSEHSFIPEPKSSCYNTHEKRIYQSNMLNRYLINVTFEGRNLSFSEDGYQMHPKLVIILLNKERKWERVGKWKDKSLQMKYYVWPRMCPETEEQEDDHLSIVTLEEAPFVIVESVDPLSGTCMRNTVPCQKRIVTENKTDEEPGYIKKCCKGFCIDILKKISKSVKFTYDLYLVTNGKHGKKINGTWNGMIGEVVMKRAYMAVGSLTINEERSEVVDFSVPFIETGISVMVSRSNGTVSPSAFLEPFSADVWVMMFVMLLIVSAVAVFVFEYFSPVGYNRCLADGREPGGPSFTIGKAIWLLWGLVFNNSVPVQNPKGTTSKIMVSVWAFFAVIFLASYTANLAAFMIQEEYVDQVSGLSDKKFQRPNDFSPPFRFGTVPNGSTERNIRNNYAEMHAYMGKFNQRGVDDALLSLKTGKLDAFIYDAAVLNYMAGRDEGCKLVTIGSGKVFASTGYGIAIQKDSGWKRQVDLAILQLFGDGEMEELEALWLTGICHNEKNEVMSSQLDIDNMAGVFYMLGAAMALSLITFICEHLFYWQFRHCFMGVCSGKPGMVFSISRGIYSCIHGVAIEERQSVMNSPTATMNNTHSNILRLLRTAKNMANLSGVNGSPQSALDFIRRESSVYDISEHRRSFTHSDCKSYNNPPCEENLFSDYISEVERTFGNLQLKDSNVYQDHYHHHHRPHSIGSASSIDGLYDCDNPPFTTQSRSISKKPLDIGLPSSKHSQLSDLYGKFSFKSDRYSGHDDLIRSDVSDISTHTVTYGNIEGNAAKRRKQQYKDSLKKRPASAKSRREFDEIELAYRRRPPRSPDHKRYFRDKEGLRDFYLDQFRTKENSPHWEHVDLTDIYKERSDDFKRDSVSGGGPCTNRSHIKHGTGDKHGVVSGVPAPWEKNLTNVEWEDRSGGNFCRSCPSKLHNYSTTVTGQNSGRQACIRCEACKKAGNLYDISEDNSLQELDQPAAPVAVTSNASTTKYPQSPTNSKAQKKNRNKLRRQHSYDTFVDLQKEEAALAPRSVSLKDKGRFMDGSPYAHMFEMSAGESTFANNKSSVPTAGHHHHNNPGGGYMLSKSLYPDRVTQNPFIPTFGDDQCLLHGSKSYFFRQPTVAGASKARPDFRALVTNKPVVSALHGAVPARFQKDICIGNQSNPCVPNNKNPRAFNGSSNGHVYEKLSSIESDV
Experimental: as §1, §2, §3, §4

Sprague Dawley rats [7] = assay: Porsolt forced swim test; assay type: in vivo
Experimental: A non-clinical in vivo pharmacology study (Porsolt assay) was performed to measure antidepressant-like effects. A negative control (0.5% sodium carboxymethyl cellulose in 0.9% sterile saline vehicle) and a positive control (fluoxetine) are shown for comparison against test compound. The study allowed for the evaluation of the effects of each compound on the Porsolt forced swim test as assessed by the rats' response (reduced floating time) during a 5-minute swimming test.
(§5) Male 2-3 month old Sprague Dawley rats were used (Harlan, Indianapolis, IN). Rats were housed in Lucite cages with aspen wood chip bedding, maintained on a 12:12 light:dark cycle (lights on at 5 AM), and given ad libitum access to Purina lab chow (USA) and tap water throughout the study.
The Porsolt forced swim test adapted for use in rats was performed as described by Burgdorf et al., (The long-lasting antidepressant effects of rapastinel (GLYX-13) are associated with a metaplasticity process in the medial prefrontal cortex and hippocampus. Neuroscience 308:202-211, 2015). Animals were placed in a 46 cm tall×20 cm in diameter clear glass tube filled to 30 cm with tap water (23±1° C.) for 15 min on the first day (habituation) and 5 min on the subsequent test day. Positive control fluoxetine was dosed 3 times (24 h, 5 h and 1 h) prior to testing. Animals were tested 1 h or 24 h post-dosing with the test compounds or vehicle. Animals received a 15 min habituation session 1 day before the 5 min test. Water was changed after every other animal. Animals were videotaped, and floating time as defined as the minimal amount of effort required to keep the animals head above water was scored offline by a blinded experimenter with high inter-rater reliability (Pearson's r>0.9).
Each compound tested at dose level shown. Significance vs. vehicle group for each experiment is marked. […] A compound marked “No” was not statistically significant from vehicle. Data was averaged for test compound and vehicle groups (N approximately 8 per group) and the percent reduction in floating for group treated with test compound relative to group treated with vehicle is shown.

[8] = Oral pharmacokinetics (plasma, brain, CSF); assay type: in vivo, Sprague Dawley rats; conditions: rat, per os, 10 mg/kg; for AUC(0-t) / bioavailability / Tmax / Cmax: Sprague Dawley, plasma, po; for Tmax: normal saline
Experimental: In another experiment, Sprague Dawley rats were dosed per os using a normal saline formulation containing 10 mg/kg of the compounds identified in the table below. Plasma, brain, and CSF samples were analyzed at various time points over a 24 hour period. The table below summarizes the results of the oral pharmacokinetics.

Sprague Dawley rats [9] = assay: Bennett model of mechanical analgesia (sciatic nerve chronic constriction injury); assay type: in vivo; conditions: 150 mg/kg PO
Experimental: The Bennett model of mechanical analgesia is used to assess the analgesic effects of compounds as measured by paw withdrawal threshold. Bennett G J, Xie Y K, “A peripheral mononeuropathy in rat that produces disorders of pain sensation like those seen in man,” Pain 33:87-107, 1988. […] Vehicle animals receive the surgery and then receive vehicle rather than test compound. Animals were tested 1 hr, 24 h and 1 wk post-test compound or vehicle administration.
as §5, with “used. Harlan was the supplier for all studies.” for “used (Harlan, Indianapolis, IN).”
Rats were anesthetized using inhaled isoflurane (2.5%). Sciatic nerve chronic constriction nerve injury surgery was performed as previously described (Bennett and Xie, 1988). An incision (˜1.5 cm in length) was made with a scalpel blade dorsally through skin on the right hind limb, parallel and posterior to femur. Using a small pointed hemostat, the biceps femoris and gluteus superficialis muscles were separated. Using curved blunt forceps, the common sciatic nerve was isolated and exposed. For the mechanical analgesia studies, the whole sciatic nerve was ligated. Using hemostats/forceps and chromic gut (5-0), the nerve was loosely ligated with a square knot; 3 ligatures, 1 mm apart were placed on the nerve. […] Testing occurred approximately 2 weeks post-surgery.
During testing, rats were acclimated to the surface of a suspended wire mesh grid (1 cm×1 cm, with the wire being 0.3 cm in diameter) for 15-20 min. Starting from the smallest, each Von Frey filament was pressed perpendicularly to the plantar surface of the affected (ipsilateral) hind paw until slightly bent and then held for 6 second. If an obvious hind paw withdrawal or a flinching behavior immediately after the withdrawal of the filament was not observed, the next larger filament was used in the same manner. In case of a response, a lower filament was used. This was repeated until six responses were collected.
For all studies, animals were baselined prior to study start to test for allodynia (defined as a paw withdrawal threshold under 5). A subset of animals was tested with gabapentin (150 mg/kg, PO) to ensure at least 50% analgesia. Once it was confirmed animals were ready for study initiation, animals were balanced across groups. All study investigators were blind to treatment conditions. Animals were dosed with 0.1, 1, 10, or 30 mg/kg of test compound via oral gavage (PO), control sets of animals were dosed with gabapentin (150 mg/kg, PO) or vehicle (0.5% Na-CMC in 0.9% sterile saline, PO). Testing occurred 1 h post-dosing with animals retested 24 hrs and 1 week post-dosing. The percent analgesia calculations for each animal were made using the following equation: % analgesia=[(log(x)−y)/((log (z)−y)]*100, where x=the paw withdrawal threshold for the drug-treated animal in grams, y=the average of the log(x) values for the vehicle treated group, and z=the paw withdrawal threshold for naïve animals in grams (historical value of 15 used). The results for Compound AA-2, where the percentage of analgesia is measured at 1 hour, 24 hours, and 1 week after compound administration are as follows: for 0.1 mg/kg dose: 22.3% at 1 h, 1.6% at 24 h, and 2.3% at 1 wk; for 1 mg/kg dose: 19.2% at 1 h, 10.7% at 24 h, and 11.0% at 1 wk; for 10 mg/kg dose: 38.1% at 1 h, 24.3% at 24 h, and 41.4% at 1 wk; and for 30 mg/kg dose: 24.4% at 1 h, 8.7% at 24 h, and 34.5% at 1 wk.

[10] = 1 h post-dose, 0.1 mg/kg, relative to vehicle group
[11] = 24 h post-dose, 0.1 mg/kg, relative to vehicle group
[12] = 1 h post-dose, 20 mg/kg, dosed 3 times (24 h, 5 h and 1 h) prior to testing

## COc1ccc(CN2CC3(CCNC(=O)C3)C2=O)cc1 (racemic) [AA-rac, 2-(4-methoxybenzyl)-2,7-diazaspiro[3.5]nonane-1,6-dione]
[1]
  Emax: 0%
[2]
  NMDAR2A B: log EC50: −
IV pharmacokinetics
  AUC(0-t): 6300 ng·h/mL
  C0: 5790 ng/mL
  clearance: 5.28 mL/min/kg
  half-life: 199 min
  Vd: 0.56 L/kg
[3]
  NMDAR2C A: % maximal [3H]MK-801 binding relative to 1 mM glycine: − (−=0)
[4]
  NMDAR2D A: % maximal [3H]MK-801 binding relative to 1 mM glycine: + (<100%=+)
[5]
  EC50: < 1 nM
[6]
  EC50: < 1 nM
  Emax: < 100%
Sprague Dawley rats [7]; 1 h post-dose, 0.1 mg/kg
  Significance vs. vehicle: Yes (found to be statistically significant (p<=0.05) from vehicle at dose level shown)
Sprague Dawley rats [7]; [10]
  % reduction in float time: 77.4%
Sprague Dawley rats [7]; 24 h post-dose, 0.1 mg/kg
  Significance vs. vehicle: Yes (found to be statistically significant (p<=0.05) from vehicle at dose level shown)
Sprague Dawley rats [7]; [11]
  % reduction in float time: 74.40%
[8]
  AUC(0-t): 17800 ng·h/mL
  bioavailability: 57%
  Tmax: 40.2 min
  Cmax: 5810 ng/mL
[8]; CSF
  CSF Cmax: 1466.9 ng/mL
[8]; brain
  Brain Cmax: 951 ng/mL

## COc1ccc(CN2C[C@]3(CCNC(=O)C3)C2=O)cc1 [AA-1, 2-(4-methoxybenzyl)-2,7-diazaspiro[3.5]nonane-1,6-dione]
[1]
  Emax: 0%
[2]
  NMDAR2A B: log EC50: −
IV pharmacokinetics
  AUC(0-t): 3430 ng·h/mL
  C0: 2340 ng/mL
  clearance: 9.69 mL/min/kg
  half-life: 67.2 min
  Vd: 0.76 L/kg
[3]
  NMDAR2C A: % maximal [3H]MK-801 binding relative to 1 mM glycine: − (−=0)
[4]
  NMDAR2D A: % maximal [3H]MK-801 binding relative to 1 mM glycine: + (<100%=+)
[5]
  EC50: ≥ 1 nM
[6]
  EC50: < 1 nM
  Emax: < 100%
Sprague Dawley rats [7]; 1 h post-dose, 0.1 mg/kg
  Significance vs. vehicle: Yes (found to be statistically significant (p<=0.05) from vehicle at dose level shown)
Sprague Dawley rats [7]; [10]
  % reduction in float time: 74.4%
Sprague Dawley rats [7]; 24 h post-dose, 0.1 mg/kg
  Significance vs. vehicle: Yes (found to be statistically significant (p<=0.05) from vehicle at dose level shown)
Sprague Dawley rats [7]; [11]
  % reduction in float time: 69.50%
[8]
  AUC(0-t): 15500 ng·h/mL
  bioavailability: 90%
  Tmax: 19.8 min
  Cmax: 8920 ng/mL

## CNCCC(Oc1ccc(C(F)(F)F)cc1)c1ccccc1 (centres unmarked) [Fluoxetine, fluoxetine, reference compound]
Sprague Dawley rats [7]; [12]
  % reduction in float time: 54%
  Significance vs. vehicle: Yes (found to be statistically significant (p<=0.05) from vehicle at dose level shown)

## NCC1(CC(=O)O)CCCCC1 [gabapentin, reference compound]
Sprague Dawley rats [9]; 1 week post-administration
  % analgesia, for the study: under 5%
Sprague Dawley rats [9]; 1 wk
  % analgesia, example (typical) control value: 0%
Sprague Dawley rats [9]; 1 h
  % analgesia, example (typical) control value: 72%
Sprague Dawley rats [9]; 1 h post-administration
  % analgesia, for the study: at least 50%
Sprague Dawley rats [9]; 24 h
  % analgesia, example (typical) control value: 16%
Sprague Dawley rats [9]; 24 h post-administration
  % analgesia, for the study: under 5%
